Assay results reported in paper PMC7170901, “Design and efficient synthesis of pyrazoline and isoxazole bridged indole C-glycoside hybrids as potential anticancer agents” (Scientific Reports, 2020).

Tests used:
COX-2 enzyme = target: T1, COX-2 enzyme (Homo sapiens, UniProt P35354); assay: Fluorescence-based COX-2 inhibitor screening assay; format: biochemical
T1 construct: purchased Bio Vision (BioVision), USA K547 / k547–100
T1 sequence (P35354 18-604): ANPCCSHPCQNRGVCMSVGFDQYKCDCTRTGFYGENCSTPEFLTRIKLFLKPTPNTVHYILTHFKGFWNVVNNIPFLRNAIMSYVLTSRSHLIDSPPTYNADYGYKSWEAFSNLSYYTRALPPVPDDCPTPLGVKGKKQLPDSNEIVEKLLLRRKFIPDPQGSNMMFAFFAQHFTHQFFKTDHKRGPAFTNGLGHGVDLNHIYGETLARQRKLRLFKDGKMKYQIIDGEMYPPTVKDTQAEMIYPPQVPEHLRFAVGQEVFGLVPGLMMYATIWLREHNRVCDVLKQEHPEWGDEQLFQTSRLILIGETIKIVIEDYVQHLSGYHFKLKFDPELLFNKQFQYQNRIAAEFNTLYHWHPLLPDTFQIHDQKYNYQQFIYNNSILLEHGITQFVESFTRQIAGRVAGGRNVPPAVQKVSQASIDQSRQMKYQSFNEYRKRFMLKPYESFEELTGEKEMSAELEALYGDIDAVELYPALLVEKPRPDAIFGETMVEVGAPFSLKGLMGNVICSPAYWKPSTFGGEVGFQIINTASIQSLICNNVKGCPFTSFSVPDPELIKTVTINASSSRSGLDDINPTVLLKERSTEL
Description: In this method we detect the fluorescence compound PGG2 which can easily be analysed with an excitation wavelength of 540 nm and emission wavelength of 590 nm. The result of COX-2 inhibitory activity has been summarised in Table 5 at two different concentrations.
Assay for cyclooxygenases (COXs) inhibition for COX-2 activity was determined by a fluorescence-based method using a COX-2 inhibitor screening assay kit (Bio vision, catalog # k547–100, S. millipitas Blvd, USA) in a total volume of 100 μL according to the directions provided with the kit manufacturer. The inhibitory activities of the tested compounds were based on the fluorometric detection of Prostaglandin G2 the intermediate product generated by the COX enzyme. The enzymes were preincubated for 5 min at 25 °C with the test compounds prior to addition of arachidonic acid. Celecoxib was used as positive control. Fluorescence was measured (Ex/Em = 540/590 nm) kinetically at 25 °C for 5–10 minutes. Two time point was chosen in the linear range of the plot and obtained the corresponding values (RFU1 and RFU2) The COX-2 inhibitory activity was calculated according to the equation. % Relative inhibition = Slope of EC − Slope of S/Slope of EC × 100. Where EC is the enzyme control and S is sample screen and slope of all the sample is calculated by dividing the net ΔRFU(RFU2 − RFU1) values by the ΔT (T2 − T1).

[1] = MTT cell viability assay in normal MCF-10A cells; format: cell-based; conditions: human, MCF-10A normal mammary epithelial cells, read-out: Cell Viability (%) ± SD
From the text: MDA-MB-231 represents a specific subtype, known as the triple negative breast cancer (TNBC). […] We also included normal mammary epithelial MCF-10A cells in our experiments to confirm if the growth-inhibitory activities of the selected compounds are truly cancer cell-specific. […] Furthermore, none of these compounds did have any growth inhibitory activity against normal breast epithelial cell (MCF-10A). The IC50 values for these compounds against MDA-MB-231 cells (Fig. 2) are also included in Table 4 for comparison. Cell viability assay was performed as per standard protocols. After 72 h of cell incubation in the presence or absence of each compound, cell viability was evaluated by using MTT ((3-(4,5-dimethylthiazol-2-yl)-2,5-diphenyltetrazolium bromide)) (Himedia Pvt. Ltd, India). In brief, this is a homogeneous, colorimetric method for determining the number of viable cells in proliferation, cytotoxicity or chemosensitivity assays. MTT is bio reduced by cells into a formazan product that is […]. After 72 h of compound treatment, the medium was removed and 100 μL of MTT (0.5 mg ml^−1 in media) was added to the cells and kept in the dark for 3 h at 37 °C in the CO2 incubator and the formazan formed was dissolved in 100 μL DMSO (Dimethyl Sulfoxide). The absorbance of the formazan product at 595 nm was measured directly from 96-well assay plates without additional processing using a multimode plate reader (Bio-Rad) (iMark, India), as absorbance is directly proportional to the number of viable cells in culture. The percentage of viable cells in each group is determined with respect to the untreated control cells.

[2] = test system: MCF-7 breast cancer cells; assay: MTT cell viability assay in MCF-7 cells; format: cell-based; conditions: Homo sapiens, MCF7; for viability at 1 µM: MCF-7, 1 µM; for viability at 1 µM / viability at 10 µM / viability at 25 µM: read-out: Cell Viability (%) ± SD; for viability at 10 µM: MCF-7, 10 µM; for viability at 25 µM: MCF-7, 25 µM; for IC50: MCF-7, MTT, five concentrations (1.0, 5.0, 10.0, 25 and 50 µM)

## O=C(/C=C/c1c[nH]c2ccccc12)C[C@@H]1O[C@H](CO)[C@@H](O)[C@H](O)[C@H]1O [Compound 9, (E)-4-(1H-indol-3-yl)-1-((2S,3R,4R,5S,6R)-3,4,5-trihydroxy-6-(hydroxymethyl)tetrahydro-2H-pyran-2-yl)but-3-en-2-one]
COX-2 enzyme
  inhibition at 25 µM: 25%
  inhibition at 50 µM: 71%
[1]
  viability at 72 h, 25 µM: 87.6 ± 1.5%
  viability at 72 h, 50 µM: 81.3 ± 2.9%
  viability at 72 h, 100 µM: 84.2 ± 3%
[2]
  viability at 1 µM: 79.7 ± 1.18%
  viability at 10 µM: 62.3 ± 3.6%
  viability at 25 µM: 53.7 ± 4%
  IC50: 30 µM

## O=C(/C=C/c1c[nH]c2ccc(Cl)cc12)C[C@@H]1O[C@H](CO)[C@@H](O)[C@H](O)[C@@H]1O [Compound 20, (E)-4-(5-chloro-1H-indol-3-yl)-1-((2S,3S,4R,5S,6R)-3,4,5-trihydroxy-6-(hydroxymethyl)tetrahydro-2H-pyran-2-yl)but-3-en-2-one]
COX-2 enzyme
  inhibition at 25 µM: 13.7%
  inhibition at 50 µM: 39%
[1]
  viability at 72 h, 25 µM: 85.8 ± 5.3%
  viability at 72 h, 50 µM: 78.8 ± 3%
  viability at 72 h, 100 µM: 36.5 ± 3.4%
[2]
  viability at 1 µM: 79.2 ± 2.6%
  viability at 10 µM: 58.7 ± 2.4%
  viability at 25 µM: 47.3 ± 7.6%
  IC50: 21 µM

## OC[C@H]1O[C@@H](CC2=NNC(c3c[nH]c4ccccc34)C2)[C@H](O)[C@@H](O)[C@H]1O (stereo partly shown) [Compound 25, (2 S,3 R,4 R,5 R,6 R)-2-((5-(1H-indol-3-yl)-4,5-dihydro-1H-pyrazol-3-yl)methyl)-6-(hydroxy-methyl)tetrahydro-2H-pyran-3,4,5-triol]
COX-2 enzyme
  inhibition at 25 µM: 6.7%
  inhibition at 50 µM: 27%
[1]
  viability at 72 h, 25 µM: 87.6 ± 2.2%
  viability at 72 h, 50 µM: 84.6 ± 1.7%
  viability at 72 h, 100 µM: 82.4 ± 2.6%
[2]
  viability at 1 µM: 66 ± 4.7%
  viability at 10 µM: 34 ± 2.5%
  viability at 25 µM: 19.9 ± 2.9%
  IC50: 4.67 µM

## O=[N+]([O-])c1ccc2[nH]cc(-c3cc(C[C@@H]4O[C@H](CO)[C@@H](O)[C@H](O)[C@H]4O)no3)c2c1 [Compound 34, (2 R,3 S,4 R,5 R,6 S)-2-(hydroxymethyl)-6-((5-(5-nitro-1H-indol-3-yl)isoxazol-3-yl)methyl) tetrahydro-2H-pyran-3,4,5-triol]
COX-2 enzyme
  inhibition at 25 µM: 4.9%
  inhibition at 50 µM: 59%
[1]
  viability at 72 h, 25 µM: 87.6 ± 1.5%
  viability at 72 h, 50 µM: 80.1 ± 2.8%
  viability at 72 h, 100 µM: 84.2 ± 3%
[2]
  viability at 1 µM: 41.3 ± 3.1%
  viability at 10 µM: 28.4 ± 0.9%
  viability at 25 µM: 23.1 ± 4.4%
  IC50: 0.71 µM

## OC[C@H]1O[C@@H](Cc2cc(-c3c[nH]c4ccccc34)on2)[C@H](O)[C@@H](O)[C@H]1O [Compound 37, (2 S,3 R,4 R,5 R,6 R)-2-((5-(1H-indol-3-yl)isoxazol-3-yl)methyl)-6-(hydroxymethyl) tetrahydro-2H-pyran-3,4,5-triol]
COX-2 enzyme
  inhibition at 50 µM: 95%
[1]
  viability at 72 h, 25 µM: 86.8 ± 2.8%
  viability at 72 h, 50 µM: 83.2 ± 5.8%
  viability at 72 h, 100 µM: 81 ± 1.5%
[2]
  viability at 1 µM: 30.8 ± 4.2%
  viability at 10 µM: 21.2 ± 3.8%
  viability at 25 µM: 19.1 ± 3.5%
